Experimental findings from PubChem BioAssay AID248 (DTP/NCI, 2004) are described below.

This assay deals with L1210 leukemia ip in BDF1 mice, survival T/C. The assay can be described thus: NCI In Vivo Anticancer Drug Screen. Data for tumor model L1210 Leukemia (intraperitoneal) in B6D2F1 (BDF1) mice. Particulars: endpoint: mean survival time, higher = longer survival. Put shortly: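 Transplanted-tumor mice were given test agent; controls received vehicle only. Survival readings from the two groups were divided (treated over control).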

Setting [1] is: dose: 100.0 mg/kg/injection, schedule: Q01DX009 (ip), vehicle: saline with Tween-80.
[2] abbreviates: dose: 100.0 mg/kg/injection, schedule: Q04DX003 (ip), vehicle: saline with Tween-80.
Setting [3] is: dose: 200.0 mg/kg/injection, schedule: Q01DX009 (ip), vehicle: saline with Tween-80.
Setting [4] is: dose: 200.0 mg/kg/injection, schedule: Q04DX003 (ip), vehicle: saline with Tween-80.
Setting [5] is: dose: 400.0 mg/kg/injection, schedule: Q04DX003 (ip), vehicle: saline with Tween-80.
[6] abbreviates: dose: 100.0 mg/kg/injection, schedule: Q04DX002 (ip), vehicle: saline.
[7] abbreviates: dose: 200.0 mg/kg/injection, schedule: Q04DX002 (ip), vehicle: saline.
Where [8] appears, read: dose: 400.0 mg/kg/injection, schedule: Q04DX002 (ip), vehicle: saline.
Where [9] appears, read: dose: 75.0 mg/kg/injection, schedule: Q01DX001 (ip), vehicle: saline.
Where [10] appears, read: dose: 150.0 mg/kg/injection, schedule: Q01DX001 (ip), vehicle: saline.
The mark [11] stands for this setting: dose: 300.0 mg/kg/injection, schedule: Q01DX001 (ip), vehicle: saline.

Values joined by “and” are separate entries in the source; they are usually repeats but may differ in a detail not shown here. Identical values can stand only once. Toxic doses and inconclusive results are not listed.

In the case of `CN(O)C(N)=O`, the T/C (dose: 25.0 mg/kg/injection, schedule: Q03HX024 (ip), vehicle: saline) is 160 % of control; the T/C (dose: 35.0 mg/kg/injection, schedule: Q01DX009 (ip), vehicle: saline) was 124 % of control; the T/C (dose: 50.0 mg/kg/injection, schedule: Q03HX024 (ip), vehicle: saline) is 124 % of control; the T/C (dose: 75.0 mg/kg/injection, schedule: Q04DX003 (ip), vehicle: saline) was 108 % of control; the T/C (dose: 100.0 mg/kg/injection, schedule: Q01DX009 (ip), vehicle: saline) was 151 % of control; the T/C (dose: 115.0 mg/kg/injection, schedule: Q04DX003 (ip), vehicle: saline) was 108 % of control. Also, the T/C runs as follows: (dose: 175.0 mg/kg/injection, schedule: Q04DX003 (ip), vehicle: saline) 119 % of control; (dose: 177.0 mg/kg/injection, schedule: Q01DX009 (ip), vehicle: saline) 152 % of control and 170 % of control; (dose: 200.0 mg/kg/injection, schedule: Q01DX009 (ip), vehicle: saline) 158 % of control; (dose: 265.0 mg/kg/injection, schedule: Q04DX003 (ip), vehicle: saline) 115 % of control; (dose: 266.0 mg/kg/injection, schedule: Q01DX009 (ip), vehicle: saline) 194 % of control; (dose: 267.0 mg/kg/injection, schedule: Q01DX009 (ip), vehicle: saline) 151 % of control. In addition, the T/C runs as follows: (dose: 400.0 mg/kg/injection, schedule: Q04DX003 (ip), vehicle: saline) 166 % of control; (dose: 500.0 mg/kg/injection, schedule: Q01DX009 (ip), vehicle: saline) 100 % of control; (dose: 800.0 mg/kg/injection, schedule: Q01DX009 (ip), vehicle: saline) 103 % of control; (dose: 900.0 mg/kg/injection, schedule: Q04DX003 (ip), vehicle: saline) 115 % of control.
For the compound `Cc1c2c(cc3c1sc1ccccc13)CCCC2=O`, the T/C was 101 % of control (dose: 100.0 mg/kg/injection, schedule: Q01DX001 (ip), vehicle: saline); 94 % of control (dose: 200.0 mg/kg/injection, schedule: Q01DX001 (ip), vehicle: saline); 101 % of control (dose: 400.0 mg/kg/injection, schedule: Q01DX001 (ip), vehicle: saline).
As to `CCN(CC)CC(C)(C)/C=N/N=C(N)N`, the T/C was 98 % of control (dose: 15.0 mg/kg/injection, schedule: Q01DX Z (ip), vehicle: saline); 91 % of control (dose: 30.0 mg/kg/injection, schedule: Q01DX Z (ip), vehicle: saline); 105 % of control (dose: 60.0 mg/kg/injection, schedule: Q01DX Z (ip), vehicle: saline).
In the case of `N#Cc1c(N)sc2c1CCCC2`, the T/C is 98 % of control under setting [1]; 102 % of control under setting [2]; 95 % of control under setting [3]; 98 % of control under setting [4]; 101 % of control (dose: 400.0 mg/kg/injection, schedule: Q01DX009 (ip), vehicle: saline with Tween-80); 101 % of control under setting [5].
Regarding `Clc1ccc(Cl)nn1`, the T/C under setting [6] was 102 % of control, the T/C under setting [7] is 87 % of control and the T/C under setting [8] was 87 % of control.
Turning to `Cc1cc(C)c(C(=O)OC(c2ccccc2)C(C)c2ccccc2)c(C)c1` (stereo not given), the T/C under setting [9] is 94 % of control, the T/C under setting [10] is 94 % of control and the T/C under setting [11] was 89 % of control.
As for `N#C/C(=C1C=C/C(=N/O)C(Br)=C/1)c1ccccc1`, the T/C is, setting by setting: under setting [2], 96 % of control; under setting [4], 100 % of control; under setting [5], 98 % of control.
Regarding `NC(N)=N/N=C/C(=N\N=C(N)N)C(O)CO` (stereo not given), the T/C runs as follows: under setting [9], 109 % of control and 100 % of control; under setting [10], 105 % of control and 106 % of control; under setting [11], 101 % of control and 105 % of control.
Turning to `CC(=O)OCC1OC(n2cc(C(F)(F)F)c(=O)[nH]c2=O)CC1OC(C)=O` (stereo not given), the T/C is, setting by setting: (dose: 20.0 mg/kg/injection, schedule: Q01DX009 (oral), vehicle: saline) 116 % of control; (dose: 20.0 mg/kg/injection, schedule: Q01DX011 (ip), vehicle: saline) 116 % of control; (dose: 40.0 mg/kg/injection, schedule: Q01DX009 (oral), vehicle: saline) 116 % of control; (dose: 40.0 mg/kg/injection, schedule: Q01DX011 (ip), vehicle: saline) 118 % of control; (dose: 45.0 mg/kg/injection, schedule: Q01DX Z (oral), vehicle: saline) 105 % of control; (dose: 65.0 mg/kg/injection, schedule: Q01DX Z (oral), vehicle: saline) 87 % of control. Also, the T/C runs as follows: (dose: 80.0 mg/kg/injection, schedule: Q01DX009 (oral), vehicle: saline) 118 % of control; (dose: 80.0 mg/kg/injection, schedule: Q01DX011 (ip), vehicle: saline) 122 % of control; (dose: 100.0 mg/kg/injection, schedule: Q01DX Z (oral), vehicle: saline) 109 % of control; (dose: 150.0 mg/kg/injection, schedule: Q01DX011 (oral), vehicle: saline) 168 % of control; (dose: 160.0 mg/kg/injection, schedule: Q01DX009 (oral), vehicle: saline) 155 % of control; (dose: 160.0 mg/kg/injection, schedule: Q01DX011 (ip), vehicle: saline) 159 % of control. Besides, the T/C was 153 % of control (dose: 300.0 mg/kg/injection, schedule: Q01DX011 (oral), vehicle: saline) and 115 % of control (dose: 480.0 mg/kg/injection, schedule: Q01DX Z (ip), vehicle: saline).
On to `O/N=C(/C(=N/O)c1ccccc1)c1ccccc1.O/N=C(/C(=N/O)c1ccccc1)c1ccccc1.[Pd]`, for which the T/C runs as follows: (dose: 50.0 mg/kg/injection, schedule: Q04DX002 (ip), vehicle: Klucel (hydroxypropylcellulose) (HPC)) 106 % of control; (dose: 100.0 mg/kg/injection, schedule: Q04DX002 (ip), vehicle: Klucel (hydroxypropylcellulose) (HPC)) 95 % of control; (dose: 200.0 mg/kg/injection, schedule: Q04DX002 (ip), vehicle: Klucel (hydroxypropylcellulose) (HPC)) 103 % of control.
As to `CCSC(=N)N`, the T/C under setting [6] is 118 % of control, the T/C under setting [7] is 104 % of control and the T/C under setting [8] is 91 % of control.
Consider `C=C=CC(C=O)(CC)CCCC` (stereo not given), for which the T/C was 91 % of control (dose: 50.0 mg/kg/injection, schedule: Q01DX009 (ip), vehicle: saline with Tween-80); 94 % of control under setting [1]; 98 % of control under setting [3].
Consider `C[C@]12CC[C@H]3[C@@H](CC[C@@H]4C[C@@H](O)CC[C@@]43C=O)[C@]13O[C@@H]3CC2c1ccc(=O)oc1` (stereo not given in full), for which the T/C is 100 % of control (dose: 0.25 mg/kg/injection, schedule: Q01DX009 (ip), vehicle: Klucel (hydroxypropylcellulose) (HPC)); 100 % of control (dose: 0.5 mg/kg/injection, schedule: Q01DX009 (ip), vehicle: Klucel (hydroxypropylcellulose) (HPC)); 100 % of control (dose: 1.0 mg/kg/injection, schedule: Q01DX009 (ip), vehicle: Klucel (hydroxypropylcellulose) (HPC)).
As to `CN(C)C(=O)Sc1ccc2ccc3ccccc3c2c1`, the T/C (dose: 50.0 mg/kg/injection, schedule: Q04DX002 (ip), vehicle: saline with Tween-80) was 108 % of control; the T/C (dose: 100.0 mg/kg/injection, schedule: Q04DX002 (ip), vehicle: saline with Tween-80) was 104 % of control; the T/C (dose: 200.0 mg/kg/injection, schedule: Q04DX002 (ip), vehicle: saline with Tween-80) is 108 % of control.
`Cc1cc(S(=O)(=O)c2cc(C)c(O)c(C(N)=O)c2)cc(C(N)=O)c1O`: the T/C (dose: 100.0 mg/kg/injection, schedule: Q04DX002 (ip), vehicle: carboxymethylcellulose (CMC)) is 95 % of control; the T/C (dose: 200.0 mg/kg/injection, schedule: Q04DX002 (ip), vehicle: carboxymethylcellulose (CMC)) was 103 % of control; the T/C (dose: 400.0 mg/kg/injection, schedule: Q04DX002 (ip), vehicle: carboxymethylcellulose (CMC)) is 98 % of control.
As to `O=C(Nc1ccc(C(=O)O)cc1)Nc1cccc(Cl)c1`, the T/C was 92 % of control (dose: 25.0 mg/kg/injection, schedule: Q04DX002 (ip), vehicle: saline); 95 % of control (dose: 50.0 mg/kg/injection, schedule: Q04DX002 (ip), vehicle: saline); 100 % of control and 89 % of control under setting [6].
